Measurements: the supplement of paper PMC11451515

Key:
Settings in all cases: 48 h
SEM cells [1] = assay: cell viability relative to DMSO control; higher = less cytotoxic
Summary of the method: (§1)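 In 1536-well plates, 5 μl of leukemia cells were seeded per well: 500 cells/well for NOMO1 or SEM and 1000 cells/well for P12-Ichikawa. Each line had first been adapted for at least four passages in each medium. Library compounds in DMSO were pin-dosed at 11 threefold concentrations between 47 μM and 0.79 nM, and CellTiter-Glo One luminescence was read after 48 h at 37°C. Viability is a per-plate percentage relative to DMSO wells, with cell-free wells as background.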

P12-Ichikawa [2] = assay: as above
Summary of the method: as §1

NOMO1 [3] = assay: as above
Summary of the method: as §1

SEM cells [4] = assay: AUC of viability dose-response curve (% viability x log10 dose units); higher = less sensitive
Summary of the method: (§2)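 Over 48 h at 37°C, leukemia cells in 1536-well plates (500 or 1000 cells/well), adapted to each medium, received library compounds in DMSO at 11 threefold doses from 47 μM to 0.79 nM. CellTiter-Glo One luminescence, normalised per plate to DMSO and cell-free wells, was fitted by a four-parameter log-logistic function of log10 dose. The area under the curve was then integrated by trapezoidal rule, after scaling curves above full viability and removing those that failed quality control.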

P12-Ichikawa [5] = assay: as above
Summary of the method: as §2

NOMO1 [6] = assay: as above
Summary of the method: as §2

C[C@@]12OC(=O)[C@@]1(NC(=O)[C@@H]2CCCl)[C@@H](O)[C@H]\3CCC\C=C3
cell viability [%]
Settings	NOMO1 [3]	P12-Ichikawa [2]	SEM cells [1]
HPLM + 10% dialyzed FBS, 0.000781 µM	109	96.4	78.2
HPLM + 10% dialyzed FBS, 0.00234 µM	114	100	92.7
HPLM + 10% dialyzed FBS, 0.00702 µM	104	104	93.6
HPLM + 10% dialyzed FBS, 0.0211 µM	104	107	100
HPLM + 10% dialyzed FBS, 0.0632 µM	97.9	109	34.2
HPLM + 10% dialyzed FBS, 0.19 µM	51.4	74.8	10
HPLM + 10% dialyzed FBS, 0.569 µM	9.1	6.01	6.88
HPLM + 10% dialyzed FBS, 1.71 µM	6.95	5.06	6.65
HPLM + 10% dialyzed FBS, 5.12 µM	4.84	3.28	4.57
HPLM + 10% dialyzed FBS, 15.4 µM	2.62	2.14	3.3
HPLM + 10% dialyzed FBS, 46.1 µM	1.53	0.616	2.16
RPMI 5 mM glucose + 10% FBS, 0.000781 µM	86.2	97.4	87.5
RPMI 5 mM glucose + 10% FBS, 0.00234 µM	94.4	109	90.2
RPMI 5 mM glucose + 10% FBS, 0.00702 µM	104	108	93.7
RPMI 5 mM glucose + 10% FBS, 0.0211 µM	103	106	96.8
RPMI 5 mM glucose + 10% FBS, 0.0632 µM	100	107	31.8
RPMI 5 mM glucose + 10% FBS, 0.19 µM	66.2	69.8	8.22
RPMI 5 mM glucose + 10% FBS, 0.569 µM	11	7.03	7.13
RPMI 5 mM glucose + 10% FBS, 1.71 µM	6.39	4.69	6.4
RPMI 5 mM glucose + 10% FBS, 5.12 µM	7.27	3.15	4.56
RPMI 5 mM glucose + 10% FBS, 15.4 µM	3.01	2.13	2.53
RPMI 5 mM glucose + 10% FBS, 46.1 µM	1.15	0.774	2.01
RPMI 5 mM glucose + 10% dialyzed FBS, 0.000781 µM	90.2	94	80.9
RPMI 5 mM glucose + 10% dialyzed FBS, 0.00234 µM	110	110	92
RPMI 5 mM glucose + 10% dialyzed FBS, 0.00702 µM	106	105	91.8
RPMI 5 mM glucose + 10% dialyzed FBS, 0.0211 µM	96.8	104	84
RPMI 5 mM glucose + 10% dialyzed FBS, 0.0632 µM	102	108	33.3
RPMI 5 mM glucose + 10% dialyzed FBS, 0.19 µM	62.7	54.4	9.46
RPMI 5 mM glucose + 10% dialyzed FBS, 0.569 µM	11	6.75	7.84
RPMI 5 mM glucose + 10% dialyzed FBS, 1.71 µM	5.88	4.56	7.08
RPMI 5 mM glucose + 10% dialyzed FBS, 5.12 µM	4.34	3.02	5.11
RPMI 5 mM glucose + 10% dialyzed FBS, 15.4 µM	2.85	2.27	3.72
RPMI 5 mM glucose + 10% dialyzed FBS, 46.1 µM	1.4	0.713	2.53

AUC of viability dose-response curve
Settings	NOMO1 [6]	P12-Ichikawa [5]	SEM cells [4]
HPLM + 10% dialyzed FBS	243	256	183
RPMI 5 mM glucose + 10% FBS	254	253	182
RPMI 5 mM glucose + 10% dialyzed FBS	254	247	177

COc1cc2nc(-c3ccc(N4CCN(C)CC4)cc3)nc(NCCN3CCOCC3)c2cc1OC
cell viability [%]
Settings	NOMO1 [3]	P12-Ichikawa [2]	SEM cells [1]
HPLM + 10% dialyzed FBS, 0.000781 µM	115	111	104
HPLM + 10% dialyzed FBS, 0.00234 µM	112	121	111
HPLM + 10% dialyzed FBS, 0.00702 µM	110	109	95.7
HPLM + 10% dialyzed FBS, 0.0211 µM	125	115	102
HPLM + 10% dialyzed FBS, 0.0632 µM	113	109	112
HPLM + 10% dialyzed FBS, 0.19 µM	97.9	110	44.1
HPLM + 10% dialyzed FBS, 0.569 µM	48.8	81.7	11.3
HPLM + 10% dialyzed FBS, 1.71 µM	35	57.9	8.34
HPLM + 10% dialyzed FBS, 5.12 µM	22.6	50	4.72
HPLM + 10% dialyzed FBS, 15.4 µM	18.8	23.2	4.43
HPLM + 10% dialyzed FBS, 46.1 µM	1.8	3.38	2.62
RPMI 5 mM glucose + 10% FBS, 0.000781 µM	102	113	108
RPMI 5 mM glucose + 10% FBS, 0.00234 µM	103	120	115
RPMI 5 mM glucose + 10% FBS, 0.00702 µM	99	108	91
RPMI 5 mM glucose + 10% FBS, 0.0211 µM	94.5	113	111
RPMI 5 mM glucose + 10% FBS, 0.0632 µM	98.7	116	107
RPMI 5 mM glucose + 10% FBS, 0.19 µM	100	111	107
RPMI 5 mM glucose + 10% FBS, 0.569 µM	84	104	41.1
RPMI 5 mM glucose + 10% FBS, 1.71 µM	47	67	14.1
RPMI 5 mM glucose + 10% FBS, 5.12 µM	18.1	36.7	7.04
RPMI 5 mM glucose + 10% FBS, 15.4 µM	9.07	5.75	3.02
RPMI 5 mM glucose + 10% FBS, 46.1 µM	2.08	2.84	2.56
RPMI 5 mM glucose + 10% dialyzed FBS, 0.000781 µM	114	113	114
RPMI 5 mM glucose + 10% dialyzed FBS, 0.00234 µM	111	108	106
RPMI 5 mM glucose + 10% dialyzed FBS, 0.00702 µM	103	118	107
RPMI 5 mM glucose + 10% dialyzed FBS, 0.0211 µM	107	103	102
RPMI 5 mM glucose + 10% dialyzed FBS, 0.0632 µM	111	106	111
RPMI 5 mM glucose + 10% dialyzed FBS, 0.19 µM	95	106	81.7
RPMI 5 mM glucose + 10% dialyzed FBS, 0.569 µM	63.7	96.3	29.3
RPMI 5 mM glucose + 10% dialyzed FBS, 1.71 µM	28.3	65.8	10.7
RPMI 5 mM glucose + 10% dialyzed FBS, 5.12 µM	11.1	22.5	5.08
RPMI 5 mM glucose + 10% dialyzed FBS, 15.4 µM	7.69	5.42	3.57
RPMI 5 mM glucose + 10% dialyzed FBS, 46.1 µM	1.71	2.71	2.59

AUC of viability dose-response curve
Settings	NOMO1 [6]	P12-Ichikawa [5]	SEM cells [4]
HPLM + 10% dialyzed FBS	300	340	248
RPMI 5 mM glucose + 10% FBS	336	350	290
RPMI 5 mM glucose + 10% dialyzed FBS	302	345	271
